pIC50: −log10 of the molar value.
Target: PRMT5/MEP50 (Homo sapiens (Human), UniProt O14744)
Assay: PRMT5 Biochemical Assay (PRMT5/MEP50 enzyme assay on peptide substrate, 3H-SAM Flashplate)
Conditions: PRMT5/MEP50 biochemical assay; read-out: Biochemical IC50

Sequence of PRMT5/MEP50 (O14744 other isoform, or with tags, fused parts or gaps): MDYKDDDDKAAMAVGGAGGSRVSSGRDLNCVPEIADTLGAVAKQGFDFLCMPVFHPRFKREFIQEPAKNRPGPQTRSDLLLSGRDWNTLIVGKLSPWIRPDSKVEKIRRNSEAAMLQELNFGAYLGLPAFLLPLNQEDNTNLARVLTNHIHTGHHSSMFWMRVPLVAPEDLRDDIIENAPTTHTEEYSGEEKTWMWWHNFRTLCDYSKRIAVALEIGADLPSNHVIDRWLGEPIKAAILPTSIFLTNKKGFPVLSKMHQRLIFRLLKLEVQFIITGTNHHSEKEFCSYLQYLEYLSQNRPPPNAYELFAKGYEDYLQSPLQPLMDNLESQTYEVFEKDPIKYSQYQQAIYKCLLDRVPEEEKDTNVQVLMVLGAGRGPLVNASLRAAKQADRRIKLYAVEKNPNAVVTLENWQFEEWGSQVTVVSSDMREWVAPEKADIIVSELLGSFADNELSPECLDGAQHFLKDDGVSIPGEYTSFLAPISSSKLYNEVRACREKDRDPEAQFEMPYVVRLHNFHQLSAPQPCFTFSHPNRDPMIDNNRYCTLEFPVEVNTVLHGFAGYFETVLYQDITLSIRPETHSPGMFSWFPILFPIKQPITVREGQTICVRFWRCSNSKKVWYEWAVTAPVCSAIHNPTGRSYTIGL
Sequence of PRMT5/MEP50 (Q9BQA1 other isoform, or with tags, fused parts or gaps partner): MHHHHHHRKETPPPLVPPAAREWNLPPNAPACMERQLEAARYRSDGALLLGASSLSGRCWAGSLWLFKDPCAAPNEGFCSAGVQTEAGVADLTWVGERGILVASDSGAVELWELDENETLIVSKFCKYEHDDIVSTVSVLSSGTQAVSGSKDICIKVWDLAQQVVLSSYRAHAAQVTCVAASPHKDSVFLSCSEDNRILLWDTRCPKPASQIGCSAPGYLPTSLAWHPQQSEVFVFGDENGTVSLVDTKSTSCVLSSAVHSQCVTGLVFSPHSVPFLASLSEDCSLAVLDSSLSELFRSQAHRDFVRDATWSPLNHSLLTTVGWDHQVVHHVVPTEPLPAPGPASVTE

pIC50 | SMILES
6.00 to 7.00 | O=C(NCC(O)CN1CCc2ccccc2C1)c1cncc(NC2CCOCC2)n1 (stereo not shown) [Compound 75]
6.00 to 7.00 | O=C(NCC(O)CN1CCc2ccccc2C1)c1cccc(NC2CCNC2)c1 (stereo not shown) [Compound 93]
> 7.00 | O=C(NCC(O)CN1CCc2ccccc2C1)c1cccc(C2CCNC2)c1 (stereo not shown) [Compound 37]
> 7.00 | CN(C)CCN(C)c1cc(C(=O)NC[C@H](O)CN2CCc3ccccc3C2)ccn1 [Compound 186]
> 7.00 | CC(=O)N1CCC(Oc2cc(C(=O)NC[C@H](O)CN3CCc4ccccc4C3)ccn2)CC1 [Compound 205]
> 7.00 | C[C@H]1CC(Nc2cccc(C(=O)NC[C@H](O)CN3CCc4ccccc4C3)c2)CCO1 (stereo partly shown) [Compound 167]
> 7.00 | O=C(NC[C@H](O)CN1CCc2ccccc2C1)c1cc(NC2CCOCC2)ncn1 [Compound 193]
> 7.00 | CNCCNc1cc(C(=O)NC[C@H](O)CN2CCc3ccccc3C2)ccn1 [Compound 314]
> 7.00 | O=C(NC[C@H](O)CN1CCc2ccccc2C1)c1cncc(NC2CCOC2)c1 (stereo partly shown) [Compound 211]
> 7.00 | O=C(NC[C@H](O)CN1CCc2ccccc2C1)c1cccc(NC2CCOCC2)c1 [Compound 44, (S)—N-(3-(3,4-dihydroisoquinolin-2(1H)-yl)-2-hydroxypropyl)-3-((tetrahydro-2H-pyran-4-yl)amino)benzamide]
> 7.00 | O=C(NC[C@H](O)CN1CCc2ccccc2C1)c1ccnc(NCCNCC(F)(F)F)c1 [Compound 316]
> 7.00 | O=C(NCC(O)CN1CCc2ccccc2C1)c1ccc(NC2CCOC2)cc1 (stereo not shown) [Compound 129]
> 7.00 | CN1CCC(c2cccc(C(=O)NCC(O)CN3CCc4ccccc4C3)c2)C1 (stereo not shown) [Compound 38, N-(3-(3,4-dihydroisoquinolin-2(1H)-yl)-2-hydroxypropyl)-3-(1-methylpyrrolidin-3-yl)benzamide]
> 7.00 | Cc1c(NC2CCOCC2)cccc1C(=O)NCC(O)CN1CCc2ccccc2C1 (stereo not shown) [Compound 40, N-(3-(3,4-dihydroisoquinolin-2(1H)-yl)-2-hydroxypropyl)-2-methyl-3-((tetrahydro-2H-pyran-4-yl)amino)benzamide]
> 7.00 | CN1CCC(Nc2cccc(C(=O)NC[C@H](O)CN3CCc4ccccc4C3)c2)CC1 [Compound 239]
> 7.00 | O=C(NC[C@H](O)CN1CCc2ccccc2C1)c1ccc2ncccc2c1 [Compound 220]
> 7.00 | O=C(NC[C@H](O)CN1CCc2ccccc2C1)c1ccnc(OC2CCN(CC(F)(F)F)CC2)c1 [Compound 203]
> 7.00 | O=C(NC[C@H](O)CN1CCc2ccccc2C1)c1nccc2ccccc12 [Compound 272]
> 7.00 | CN(C)CCOc1cccc(C(=O)NCC(O)CN2CCc3ccccc3C2)c1 (stereo not shown) [Compound 28, N-(3-(3,4-dihydroisoquinolin-2(1H)-yl)-2-hydroxypropyl)-3-(2-(dimethylamino)ethoxy)benzamide]
6.00 to 7.00 | COCCCNc1cccc(C(=O)NCC(O)CN2CCc3ccccc3C2)c1 (stereo not shown) [Compound 69]
> 7.00 | O=C(NC[C@H](O)CN1CCc2ccccc2C1)c1ccc(OC2CCN(Cc3ccccc3)CC2)cc1 [Compound 330]
6.00 to 7.00 | O=C1COc2cc(C(=O)NCC(O)CN3CCc4ccccc4C3)ccc2N1 (stereo not shown) [Compound 89]
6.00 to 7.00 | O=C(NC[C@@H](O)CN1CCc2ccccc2C1)c1cccc(NC2CCOCC2)c1 [Compound 43]
> 7.00 | O=C(NC[C@H](O)CN1CCc2ccccc2C1)c1ccnc(NCC2CC2)c1 [Compound 187]
> 7.00 | CC(=O)N1CCC(Nc2cncc(C(=O)NC[C@H](O)CN3CCc4ccccc4C3)c2)CC1 [Compound 302]
> 7.00 | CC(C)N1CCC(Nc2cccc(C(=O)NCC(O)CN3CCc4ccccc4C3)c2)CC1 (stereo not shown) [Compound 103]
> 7.00 | O=C(NCC(O)CN1CCc2ccccc2C1)c1cncc(NC2CCOCC2)c1 (stereo not shown) [Compound 54, N-(3-(3,4-dihydroisoquinolin-2(1H)-yl)-2-hydroxypropyl)-5-((tetrahydro-2H-pyran-4-yl)amino)nicotinamide]
> 7.00 | O=C(NC[C@H](O)CN1CCc2ccccc2C1)c1cc(OC2CCOCC2)ncn1 [Compound 256]
